Assay results published in US12336980B2, “Dosing regimen for a selective S1P1 receptor agonist” (Vanda Pharmaceuticals Inc., priority 2014, dated 2025).

What was measured:
Type in all cases: in vivo, human
healthy subjects = experiment: Vital signs, supine blood pressure; settings: first administration, mean±SD
Excerpt: (§1) The enrolled subjects came to the study center for each treatment period on Day −2 and participated in a run-in (all study procedures performed without study drug administration) on Day −1. On Day 1, subjects were randomized to one of the two possible sequences of the two up-titration regimens A and B (ratio 1:1). On Day 1, all subjects received placebo; the first study drug administration (or its matching placebo) occurred on Day 2. Regimen A consisted of the novel up-titration regimen: ponesimod was administered once daily (o.d.) orally at a dose of 2 mg on Day 2 and Day 3, 3 mg on Day 4 and Day 5, 4 mg on Day 6 and Day 7, 5 mg on Day 8, 6 mg on Day 9, 7 mg on Day 10, 8 mg on Day 11, 9 mg on Day 12, 10 mg on Day 13 and Day 14, and 20 mg on Day 15. The reference regimen (regimen B) was based on previous studies (Olsson T. et al., Oral ponesimod in relapsing-remitting multiple sclerosis: a randomised phase II trial. J Neurol Neurosurg Psychiatry. 2014; 85 (11): 1198-1208; and Vaclavkova A. et al., Oral ponesimod in patients with chronic plaque psoriasis: a randomised, double-blind, placebo-controlled phase 2 trial. Lancet. 2014; 384 (9959): 2036-2045) and consisted of an o.d. oral administration of ponesimod at a dose of 10 mg for 7 days (i.e., from Day 2 to Day 8) and 20 mg on Day 9. From Day 10 to Day 15 subjects received o.d. the matching placebo. In the placebo group (1:1 sex ratio), subjects received placebo from Day 1 to Day 15. All treatments were administered at the same time in the morning (fasted condition) with approximately 240 mL of water.
Safety and tolerability were evaluated by monitoring adverse events (AEs), vital signs measurements (supine blood pressure), pulmonary function tests (PFTs; i.e., FEV1 and FVC), clinical laboratory, physical, and neurological examinations. Recording of blood pressure was performed at the same time-points as 12-lead ECG.

[1] = Plasma concentrations of ponesimod by LC-MS/MS
Excerpt: as §1, with “All treatments were administered at the same time in the morning (fasted condition) with approximately 240 mL of water.” left out
Blood samples of about 3 mL were collected in ethylene di-amine tetra acetic acid tubes at pre-dose and 3 h after study drug administration from Day 1 to Day 15 in each treatment period. […] Plasma concentrations of ponesimod were determined using a validated liquid chromatography coupled to tandem mass spectrometry assay with a lower limit of quantification of 1 ng/mL (Brossard P. et al., Pharmacokinetics and pharmacodynamics of ponesimod, a selective S1 P1 receptor modulator, in the first-in-human study. British journal of clinical pharmacology. 2013; 76 (6): 888-896). […]

[2] = test system: peripheral blood lymphocytes; experiment: Repeated daily oral dosing, number of peripheral blood lymphocytes (background finding); settings: repeated daily oral dosing of 5 mg or more to humans
heart rate in humans = experiment: Heart rate reduction in humans after administration (background finding); settings: transient heart rate reduction

concentration at 3 h ([1]; human, plasma, oral, 20 mg, regimen A, Day 15, read-out: plasma concentration 3 h after 20 mg of ponesimod): 144 ± 36.9 ng/mL
plasma concentration 3 h after 20 mg of ponesimod ([1]; regimen B, Day 9): 144.0 ± 41.9 ng/mL
10 mg steady-state conditions attained ([1]; regimen B, visual inspection): Day 6
Compound: CCC/N=C1\S/C(=C\c2ccc(OC[C@H](O)CO)c(Cl)c2)C(=O)N1c1ccccc1C [ponesimod, (R)-5-[3-chloro-4-(2,3-dihydroxy-propoxy)-benz[Z]ylidene]-2-([Z]-propylimino)-3-o-tolyl-thiazolidin-4-one]
decrease in DBP (healthy subjects; regimen A): −7±5.3 mmHg
decrease in SBP (healthy subjects; regimen A): −4±4.4 mmHg
decrease in DBP (healthy subjects; regimen B): −10±4.4 mmHg
decrease in SBP (healthy subjects; regimen B): −5±7.7 mmHg
reduction in the number of peripheral blood lymphocytes [2]: consistent, sustained, and dose-dependent reduction
time of maximal heart rate reducing effects after administration (heart rate in humans): 1 to 3 h
